The results in this text go back to US20200031778A1, “NOVEL 5-SUBSTITUTED IMIDAZOLYLMETHYL DERIVATIVES” (Bayer CropScience Aktiengesellschaft, priority 2016, published 2020).

Molecules are shown by their SMILES.

The nature of the data set: Log P by HPLC on reversed phase columns (EEC directive 79/831 Annex V.A8; methods [a], [b], [c]). In kind it is physicochemical. Conditions: for chromatographic logP: reversed phase HPLC column, method [a]: LC-UV, acidic range, 0.1% formic acid in water and acetonitrile as eluent (linear gradient from 10% to 95% acetonitrile). In short, it runs like this:
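Log P derived from retention times, interpolated linearly between bracketing straight-chain alkan-2-ones (3–16 carbons) of known Log P. Eluents ran acetonitrile 10% to 95% against water with 0.1% formic acid ([a], acidic), 0.001 M ammonium acetate ([b], neutral) or 0.1% phosphoric acid ([c], acidic); UV read-out.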

As to `N#Cc1cncn1CC(O)(c1cc(Br)cc(Br)c1)C1(F)CC1` (centres unmarked) [I-469], the LogP is 2.82^[a].

Consider `N#Cc1cncn1CC(O)(CC1CC1)c1cc(Br)cc(Br)c1` (centres unmarked) [I-498], for which the LogP is 2.99^[a].

Take `N#Cc1cncn1CC(O)(c1ccc(C#CC2CC2)cc1F)C1(Cl)CC1` (centres unmarked) [I-651]: the LogP was 3.11^[a]. Still for that read-out and setting: next, `CC(C)(C)C(O)(Cn1cncc1C#N)c1cc(F)c(Cl)c(Cl)c1` (centres unmarked) [I-545]: 3.31^[a]; `CC(=O)c1cncn1CC(C)(O)c1ccc(Oc2ccc(C(C)C)cc2)nc1C(F)(F)F` (centres unmarked) [I-299]: 3.33^[a]; `N#Cc1cncn1CC(O)(c1cc(F)c(F)cc1Cl)C1(Cl)CC1` (centres unmarked) [I-584]: 2.49^[a]. Regarding `CCc1ccc(C(O)(Cn2cncc2C#N)C2(Cl)CC2)c(Cl)c1` (centres unmarked) [I-353], the LogP is 2.86^[a]. Take `N#Cc1cncn1CC(O)(c1cccc(Cl)c1F)C1(Cl)CC1` (centres unmarked) [I-553]: the LogP was 2.40^[a]. Same read-out and setting: with `COC(Cn1cncc1C#N)c1ccc(Oc2ccc(C(F)(F)F)cc2)cc1C(F)(F)F` (centres unmarked) [I-67] the figure was 4.27^[a]; with `N#Cc1cncn1CC(O)(c1cc(F)cc(F)c1F)C1(F)CC1` (centres unmarked) [I-588], 2.18^[a]; with `N#Cc1cncn1CC(O)(c1cc(Cl)c(Cl)c(Cl)c1)C1(F)CC1` (centres unmarked) [I-534], 3.03^[a]. Still for that read-out and setting: next, `N#Cc1cncn1CC(O)(C#CC1CC1)C1(F)CC1` (centres unmarked) [I-693]: 1.74^[a]; `CC(O)(Cn1cncc1Br)c1ccc(Oc2ccc(Cl)cc2)cc1Br` (centres unmarked) [I-170]: 2.80^[a]; `CC(O)(Cn1cncc1Cl)c1ccc(Oc2ccc(Cl)cc2)cc1C(F)(F)F` (centres unmarked) [I-168]: 2.80^[a]. Still for that read-out and setting: with `CC(C)C(O)(Cn1cncc1C#N)c1ccc(Br)cc1Cl` (centres unmarked) [I-422] the figure was 3.02^[a]; with `N#Cc1cncn1CC(O)(c1ccc(F)c(Br)c1F)C1(Cl)CC1` (centres unmarked) [I-616], 2.54^[a]. `N#Cc1cncn1CC(O)c1ccc(Oc2ccc(I)cc2)cc1Br` (centres unmarked) [I-110]: the LogP was 3.48^[a]. Still for that read-out and setting: next, `N#Cc1cncn1CC(O)c1ccc(Oc2ccc(Cl)cc2)nc1C(F)(F)F` (centres unmarked) [I-124]: 3.15^[a]; `N#Cc1cncn1CC(O)(CC1CC1)c1ccc(F)c(Cl)c1` (centres unmarked) [I-485]: 2.52^[a]. As for `N#Cc1cncn1CC(O)c1ccc(Oc2ccc(Cl)cn2)cc1Cl` (centres unmarked) [I-69], the LogP was 2.54 ^[a].

For the molecule `CCCCC(O)(Cn1cncc1C#N)c1ccccc1Cl` (centres unmarked) [I-282], the LogP is 2.80^[a]. The same measure, in the same setting: with `C[Si](C)(C)C#Cc1ccc(C(O)(Cn2cncc2C#N)C2(Cl)CC2)c(Cl)c1` (centres unmarked) [I-366] the figure was 4.24^[a]; with `OC(Cn1cncc1Cl)c1ccc(Oc2ccc(Br)nc2)cc1Cl` (centres unmarked) [I-77], 1.92^[a]. Still for that read-out and setting: with `N#Cc1cncn1CC(O)(c1ccc(Br)cc1Cl)C1(Cl)CC1` (centres unmarked) [I-333] the figure was 2.73^[a]. Same read-out and setting: with `CC(C)(C)C(O)(Cn1cncc1C#N)c1cc(F)cc(Cl)c1` (centres unmarked) [I-495] the figure was 2.88^[a].

Take `CC(C)(C)CC(O)(Cn1cncc1C#N)c1ccccc1Cl` (centres unmarked) [I-309]: the LogP is 3.17^[a]. `CCC(C)C(O)(Cn1cncc1C#N)c1ccc(Cl)cc1Cl` (centres unmarked) [I-314]: the LogP was 3.29^[a]. Still for that read-out and setting: next, `Cc1ccc(C(C)(O)Cn2cncc2C#N)cc1` (centres unmarked) [I-340]: 1.75^[a]; `OC(Cn1cncc1Cl)c1ccc(Oc2ccc(C(F)(F)F)cc2)cc1Cl` (centres unmarked) [I-09]: 2.82^[a]; `Cc1ccc(C#CC(O)(Cn2cncc2C#N)C2(F)CC2)cc1` (centres unmarked) [I-373]: 2.52^[a]. On the same count and under the same terms, next, `N#Cc1cncn1CC(O)(CC1CC1)c1c(F)cc(Cl)cc1F` (centres unmarked) [I-512]: 2.67^[a]; `OC(Cn1cncc1Br)c1ccc(Oc2ccc(Cl)nc2)nc1Cl` (centres unmarked) [I-17]: 1.69^a.

As to `OC(Cn1cncc1F)(c1ccc(Cl)cc1Br)C1(F)CC1` (centres unmarked) [I-431], the LogP is 1.73^[a]. Consider `N#Cc1cncn1CC(O)(c1ccc(Cl)cc1F)C1CCCCC1` (centres unmarked) [I-482], for which the LogP was 3.42^[a]. As to `CC(C)C(O)(Cn1cncc1C#N)c1ccc(C(F)(F)F)cc1Cl` (centres unmarked) [I-426], the LogP is 3.11^[a]. On the same count and under the same terms, next, `CC(C)C(O)(Cn1cncc1C#N)c1ccc(Cl)cc1Br` (centres unmarked) [I-416]: 3.02^[a]; `N#Cc1cncn1CC(O)(c1cc(F)c(Cl)cc1F)C1(Cl)CC1` (centres unmarked) [I-583]: 2.66^[a]; `N#Cc1cncn1CC(O)(CC1CCCCC1)c1ccc(F)cc1Br` (centres unmarked) [I-465]: 3.78^[a]. As for `O=C(Cn1cncc1Cl)c1ccc(Oc2ccc(Cl)cn2)cc1` [IX-02], the chromatographic logP turned out to be 2.12. As to `CCCC#Cc1ccc(C(O)(Cn2cncc2C#N)C2(Cl)CC2)c(F)c1` (centres unmarked) [I-652], the LogP is 3.48^[a]. The same measure, in the same setting: next, `Cc1ccc(Oc2ccc(C(C)(O)Cn3cncc3Cl)c(Cl)c2)cc1` (centres unmarked) [I-156]: 3.13^[a]. The molecule `O=C(Cn1cncc1Cl)c1ccc(O)cc1Cl` [IX-145] gave a chromatographic logP of 0.97. Consider `N#Cc1cncn1CC(O)c1ccc(F)cc1` (centres unmarked) [I-117], for which the LogP is 1.37^[a]. Consider `N#Cc1cncn1CC(O)(CC1CC1)c1cc(F)c(F)c(F)c1` (centres unmarked) [I-501], for which the LogP was 2.51^[a]. In the case of `N#Cc1cncn1CC(O)(c1cc(F)ccc1Cl)C1(F)CC1` (centres unmarked) [I-439], the LogP is 2.16^[a].

`OC(Cn1cncc1Br)c1ccc(Oc2ccc(I)cc2)cc1Br` (centres unmarked) [I-109]: the LogP was 2.78^[a]. Same read-out and setting: next, `N#Cc1cncn1CC(O)c1cnc(Oc2ccc(C(F)(F)F)cc2)cc1C(F)(F)F` (centres unmarked) [I-111]: 3.15^[a]. With `N#Cc1cncn1CC(O)(c1ccc(Cl)c(Br)c1)C1(F)CC1` (centres unmarked) [I-538], the LogP was 2.71^[a]. Regarding `CC(O)(Cn1cncc1C(F)(F)F)c1ccc(Oc2ccc(Cl)cc2)cc1F` (centres unmarked) [I-205], the LogP was 3.83^[a].

In the case of `OC(Cn1cncc1Cl)c1ccc(Oc2ccc(OC(F)(F)F)cc2)c(Br)c1` (centres unmarked) [I-05], the LogP was 2.82^[a].

On to `CC(C)(C)C(O)(Cn1cncc1C#N)c1ccc(F)c(Br)c1` (centres unmarked) [I-509], for which the LogP is 2.97^[a]. The same measure, in the same setting: with `N#Cc1cncn1CC(O)c1ccc(Oc2ccc(Cl)cc2)cc1F` (centres unmarked) [I-54] the figure was 2.94^[a]; with `N#Cc1cncn1CC(O)(c1cc(Cl)c(Cl)cc1F)C1(F)CC1` (centres unmarked) [I-589], 2.68^[a]; with `N#Cc1cncn1CC(O)(CC1CCCCC1)c1ccc(Cl)cc1F` (centres unmarked) [I-468], 3.80^[a]. As to `CC(O)(Cn1cncc1C#N)c1ccc(Oc2ccc(C(F)(F)F)cc2)cc1C(F)(F)F` (centres unmarked) [I-206], the LogP was 3.64^[a]. Still for that read-out and setting: with `CC(O)(Cn1cncc1Br)c1ccc(Oc2ccc(Br)cc2)cc1C(F)(F)F` (centres unmarked) [I-192] the figure was 3.03^[a]; with `OC(Cn1cncc1Cl)c1ccc(Oc2ccc(Cl)cn2)cc1C(F)(F)F` (centres unmarked) [I-65], 2.21^[a]. Same read-out and setting: next, `CCOC(Cn1cncc1C#N)c1ccc(Oc2ccc(Cl)cc2)cc1Br` (centres unmarked) [I-62]: 4.51^[a]; `CC(C)(C)C(O)(Cn1cncc1C#N)c1cc(Cl)c(Cl)c(Cl)c1` (centres unmarked) [I-546]: 3.59^[a]; `C[Si](C)(C)CC(O)(Cn1cncc1C#N)c1ccc(C(F)(F)F)cc1` (centres unmarked) [I-269]: 3.55^[a]. Turning to `CCOC(Cn1cncc1Br)c1ccc(Oc2ccc(Cl)cc2)cc1Br` (centres unmarked) [I-56], the LogP is 3.99^[a]. The same measure, in the same setting: with `OC(Cn1cncc1Cl)c1ccc(Oc2ccc(C(F)(F)F)cc2)c(Br)c1` (centres unmarked) [I-12] the figure was 2.75^[a].

One may read the chromatographic logP as lipophilicity estimated from chromatographic retention.
